# Laboratory results as given in patent US4266034A, “Method for producing microbial cells and use thereof to produce oxidation products” (priority 1979, dated 1981).
# Where two headings read alike, the source gives them in different places.
# Key:
# [1] = test system: secondary alcohol dehydrogenase; experiment: Purified yeast-derived secondary alcohol dehydrogenase activity; assay type: biochemical, Pichia sp. NRRL Y-11,328
# Experimental: Large scale cultures of Pichia sp. NRRL Y-11,328 were grown with aeration at 30° C. in a 14-liter New Brunswick f fermentor in a mineral salt medium containing methanol (0.4%, v/v) as the sole carbon source. The cells (200 g., wet weight) were suspended in […] sodium phosphate buffer, pH 7.0, containing 1 mM dithiothreitol (buffer A), and crude extracts were prepared as described previously. To the crude extracts, 18 ml. of protamine sulfate solution [2% solution in 0.1 M tris (hydroxymethyl) aminomethane (tris) base] was added dropwise with continuous stirring. After standing for 30 min., the extracts were centrifuged at 20,000×g. for 60 min. The supernatant solution was fractionated with solid ammonium sulfate. Extracts were brought to 50% of saturation with respect to ammonium sulfate by addition of 313 g. of the salt per liter of extract. Precipitated proteins was removed by centrifugation, and 137 g. of ammonium sulfate was added per liter of the supernatant liquid to bring it to 70% of saturation. Material precipitating between 50 and 70% of saturation was collected by centrifugation and dissolved in buffer A. This preparation was dialyzed overnight against buffer A, and the dialyzed material was applied to a DEAE-cellulose column (5×40 cm) that had been equilibrated with buffer A. The sample was washed with 200 ml. of buffer A and eluted with 2 liters of buffer A that contained NaCl in a linear gradient running from a concentration of 0 to 0.5 M. Fractions of 15 ml. were collected. Fractions containing secondary alcohol dehydrogenase activity were pooled and were termed DEAE-cellulose eluate. The DEAE-cellulose eluate was concentrated by ammonium sulfate fractionation.
# Secondary alcohol dehydrogenase activity was measured spectrophotometrically at 340 nm with a NAD^+ as an electron acceptor. The reaction mixture, in a total 3.0 ml., contained 50 mM phosphate buffer, pH 8.0, 5 μmoles NAD^+, crude extracts, and substrate. […] Protein concentration was determined by the method of Lowry et al.
# The substrate specificity of the purified secondary alcohol dehydrogenase was examined spectrophotometrically.
# [2] = test system: secondary alcohol dehydrogenase (SADH); experiment: Purified secondary alcohol dehydrogenase (SADH) activity; assay type: biochemical, Pseudomonas sp. ATCC 21439; settings: each inhibitor 1 mM, measured spectrofluorometrically
# Experimental: Secondary alcohol dehydrogenase (SADH) from an obligate methanol utilizer, Pseudomonas sp. ATCC 21439 was purified as follows. […] 0.05 M sodium phosphate buffer, pH 7.0 with 0.5 mM dithiothretol (buffer A) and were disrupted sonically (5×1 min.). The crude extract was separated by centrifugation. The crude extract was heat-treated at 50° C. in a water bath for 10 minutes. The resulting precipitate was removed by centrifugation. To the supernatant solution, 25 ml of protamine sulfate solution (2% solution in 0.1 M Tris base) was added dropwise with continuous stirring. After standing for 30 minutes, the extract was centrifuged. The supernatant solution was fractionated with solid ammonium sulfate. The material precipitating between 30 and 60% saturation was collected and was dialized overnight against buffer A. The The dialized material was applied to a DEAE-cellulose column (3 cm by 35 cm) that had been equilibrated with buffer A. The secondary alcohol dehydrogenase activity was eluted in the void volume. This DEAE-cellulose eluate was concentrated by ammonium sulfate fractionation. Material precipitating between 30 and 50% ammonium sulfate saturation was collected by centrifugation and dialyzed overnight against A. This fraction was further washed and filtered through an Amicon unit with XM 50 membrane. The concentrated fraction (6 ml) inside the Amicon unit was applied to an Affi-Gel Blue column (0.8 cm×18 cm) which had been equilibrated with buffer A for affinity chromatography. The column was washed overnight with buffer A (0.18 ml./min.) and then was eluted with buffer A containing 5 mM NAD. Each 1 ml. fraction was collected.
# The purified secondary alcohol dehydrogenase enzyme (SADH) may be used directly for converting C3 -C6 secondary alcohols to the corresponding methyl ketones by the procedures described above; however, a source of NAD^+ must be added to the reaction medium. One can determine the NAD-linked secondary alcohol dehydrogenase activity with a fluorescence spectrophotometer (Perkin Elmer, Model MPF 44A) by following the formation of reduced NAD (Ex 340 nm, Em 460 nm). The assay system (3 ml.) will typically contain: sodium phosphate buffer pH 7.0, 150 μmol; NAD 1.0 μmol; a given amount of enzyme preparation; and 20 μmol secondary alcohol. The reaction is started by the addition of secondary alcohol. One unit of SADH enzyme activity represents the reduction of one nmole NAD per minute.
# The effect of metal-chelating agents and thioreagents on the activity of the purified SADH enzyme were studied. […] The possibility of ethanol or n-propanol as an inhibitor was studied.
# [3] = test system: P(40) particulate fraction of Methylosinus sp. (CRL-15, NRRL B-11,202); experiment: Epoxidation of propylene and hydroxylation of methane by P(40) particulate fraction; assay type: biochemical; settings: for Propylene Oxide Produced: substrate competition, P(40) fraction; for Rate of Production Formation: substrate oxidized by P(40) fraction, 30° C.; for Methane-Oxidizing Activity / Propylene-Oxidizing Activity: metal 10^-3 M; for Methane-Oxidizing Activity: control 4.0; for Propylene-Oxidizing Activity: control […]
# [4] = test system: cell-free particulate fractions derived from the methylotrophic microorganisms; experiment: Inhibition of conversion of C3-C6 n-alkanes to sec. alcohols by cell-free particulate fractions; assay type: biochemical; settings: oxygen and NADH
# Description: The conditions for preparing the cell suspensions or the cell-free particulate fractions from methane-grown methylotroph microorganisms is the same as described above. […] Tables XXV and XXVI show the conversion of C3 -C6 n-alkanes to the corresponding secondary alcohols using cell suspensions and cell-free particulate fractions, respectively, of methane-grown methylotroph microorganisms.
# [5] = test system: methanol-grown Methylococcus capsulatus CRL M1 (NRRL B-11,219); experiment: Production of 2-butanone from 2-butanol by cell suspensions, inhibition studies; assay type: cell-based; settings: 1 mM
# [6] = test system: secondary alcohol dehydrogenase; experiment: Cofactor requirement of cell-free soluble extracts oxidizing 2-butanol; assay type: biochemical; settings: cell-free systems
# Experimental: Catalytic activity was also assayed by fluorescence spectrophotometry.
# [7] = examined spectrophotometrically
# [8] = purified enzyme, substrate 5.7 (isopropanol) or 6.0 (2-butanol) μmoles
compound,measurement,setting,value
CO [methanol],oxidation by the purified enzyme (substrate specificity),[1]; [7],not oxidized
[Ni+2] [nickel],% inhibition of SADH activity,[2],20%
C [Methane],Propylene Oxide Produced,[3],0 μmoles/hr/mg. protein
same,Rate of Production Formation,[3],4.8 μ moles/hr/mg of protein
cytochrome c,ability to act as electron carrier in place of NAD^+,[1]; purified enzyme,could not act as electron carrier
C=CC [Propylene],Propylene Oxide Produced,[3],4.3 μmoles/hr/mg. protein
same,Rate of Production Formation,[3],4.1 μ moles/hr/mg of protein
same,inhibition of the conversion of n-alkanes to sec. alcohols,[4],inhibited
O=C(O)c1cc[c]([Hg+])cc1.[OH-] [p-hydroxymercuribenzoate],% inhibition of SADH activity,[2],100%
same,inhibition of secondary alcohol dehydrogenase activity,[1]; purified enzyme,strongly inhibited
[Mn+2] [Mn^++],% inhibition of SADH activity,[2],0%
C=C [Ethylene],Rate of Production Formation,[3],1.27 μ moles/hr/mg of protein
CCCO [propan-1-ol],oxidation by the purified enzyme (substrate specificity),[1],not oxidized
CC [Ethane],Rate of Production Formation,[3],3.2 μ moles/hr/mg of protein
[Cl][Cu] [Cuprous Chloride],Methane-Oxidizing Activity,[3],7.2 μmoles/hr/mg protein
same,Propylene-Oxidizing Activity,[3],9.2 μmoles/hr/mg protein
[Fe+3] [ferric],% inhibition of SADH activity,[2],35%
Ferrous Sulfate,Methane-Oxidizing Activity,[3],4.8 μmoles/hr/mg protein
same,Propylene-Oxidizing Activity,[3],5.9 μmoles/hr/mg protein
NC(N)=S [Thiourea],Inhibition (%) of production of 2-butanone,[5],not inhibited
same,inhibition of the conversion of n-alkanes to sec. alcohols,[4],inhibited
CC(C)O [2-propanol],oxidation by the purified enzyme (substrate specificity),[1]; [7],catalyzed the oxidation
same,NAD^+ Reduced,[1]; [8],5.4 µmol
same,Product Formed,[1]; [8],5.5 µmol
c1c[nH]cn1 [Imidazole],inhibition of secondary alcohol dehydrogenase activity,[1]; purified enzyme,strongly inhibited
[Cl][Fe]([Cl])[Cl] [Ferric Chloride],Methane-Oxidizing Activity,[3],4.8 μmoles/hr/mg protein
same,Propylene-Oxidizing Activity,[3],5.8 μmoles/hr/mg protein
CCCCCCC(C)O (stereo not drawn) [2-octanol],oxidation by the purified enzyme (substrate specificity),[1]; [7],not oxidized
O=S(=O)([O-])[O-].[Cu+2] [Cupric Sulfate],Methane-Oxidizing Activity,[3],7.1 μmoles/hr/mg protein
same,Propylene-Oxidizing Activity,[3],9.0 μmoles/hr/mg protein
same,inhibition of secondary alcohol dehydrogenase activity,[1]; purified enzyme,inhibited
CCCCCO [pentan-1-ol],oxidation by the purified enzyme (substrate specificity),[1]; [7],not oxidized
O=[N+]([O-])[O-].[Ag+] [silver nitrate],inhibition of secondary alcohol dehydrogenase activity,[1]; purified enzyme,inhibited
CCCCO [butan-1-ol],oxidation by the purified enzyme (substrate specificity),[1],not oxidized
C=CCCC [1-Pentene],Rate of Production Formation,[3],0 μ moles/hr/mg of protein
C[n+]1c2ccccc2nc2ccccc21 [phenazine methosulfate],effectiveness as cofactor in place of NAD,[6],not effective
same,ability to act as electron carrier in place of NAD^+,[1]; purified enzyme,could not act as electron carrier
"c1ccc(-c2ccccn2)nc1 [α,α-Bipyridyl]",Inhibition (%) of production of 2-butanone,[5],inhibited
same,% inhibition of SADH activity,[2],70%
same,inhibition of the conversion of n-alkanes to sec. alcohols,[4],inhibited
CCCCC(C)O (stereo not drawn) [2-hexanol],oxidation by the purified enzyme (substrate specificity),[1]; [7],catalyzed the oxidation
[Fe+2] [ferrous],% inhibition of SADH activity,[2],50%
[Zn+2] [Zn^++],% inhibition of SADH activity,[2],0%
NNC(N)=S [Thiosemicarbazide],inhibition of the conversion of n-alkanes to sec. alcohols,[4],inhibited
[N-]=[N+]=[N-] [Sodium azide],% inhibition of SADH activity,[2],10%
"CCC(O)CO (stereo not drawn) [butane 1,2-diol]",oxidation by the purified enzyme (substrate specificity),[1]; [7],not oxidized
[Mg+2] [Mg^++],% inhibition of SADH activity,[2],0%
CCCCCC(C)O (stereo not drawn) [2-Heptanol],oxidation by the purified enzyme (substrate specificity),[1]; [7],not oxidized
"O=C1C(Cl)=CC(=Nc2ccc(O)cc2)C=C1Cl [2,6-dichlorophenol indophenol]",effectiveness as cofactor in place of NAD,[6],not effective
same,ability to act as electron carrier in place of NAD^+,[1]; purified enzyme,could not act as electron carrier
NC(=O)c1ccc[n+]([C@@H]2O[C@H](COP(=O)([O-])OP(=O)(O)OC[C@H]3O[C@@H](n4cnc5c(N)ncnc54)[C@H](OP(=O)(O)O)[C@@H]3O)[C@@H](O)[C@H]2O)c1 [NADP],effectiveness as cofactor in place of NAD,[6],not effective
same,ability to act as electron carrier in place of NAD^+,[1]; purified enzyme,could not act as electron carrier
[Co+2] [Co^++],% inhibition of SADH activity,[2],0%
C=CC=C [Butadiene],Rate of Production Formation,[3],0.63 μ moles/hr/mg of protein
N[C@@H](CCC(=O)N[C@@H](CS)C(=O)NCC(=O)O)C(=O)O [glutathione],effectiveness as cofactor in place of NAD,[6],not effective
same,inhibition of secondary alcohol dehydrogenase activity,[1]; purified enzyme,strongly inhibited
N#C[S][Hg][S]C#N [mercuric thiocyanate],inhibition of secondary alcohol dehydrogenase activity,[1]; purified enzyme,inhibited
"CC(O)CCO (stereo not drawn) [butane 1,3-diol]",oxidation by the purified enzyme (substrate specificity),[1]; [7],not oxidized
Cc1cc2nc3c(=O)[nH]c(=O)nc-3n(C[C@H](O)[C@H](O)[C@H](O)COP(=O)(O)OP(=O)(O)OC[C@H]3O[C@@H](n4cnc5c(N)ncnc54)[C@H](O)[C@@H]3O)c2cc1C [flavin adenine dinucleotide],effectiveness as cofactor in place of NAD,[6],not effective
same,ability to act as electron carrier in place of NAD^+,[1]; purified enzyme,could not act as electron carrier
Oc1cccc2cccnc12 [8-Hydroxyquinoline],inhibition of the conversion of n-alkanes to sec. alcohols,[4],inhibited
CCO [ethanol],oxidation by the purified enzyme (substrate specificity),[1],not oxidized
C=CCC [1-Butene],Rate of Production Formation,[3],2.18 μ moles/hr/mg of protein
CCC(C)O (stereo not drawn) [2-butanol],oxidation by the purified enzyme (substrate specificity),[1],catalyzed the oxidation
CCCC(C)O (stereo not drawn) [2-pentanol],oxidation by the purified enzyme (substrate specificity),[1]; [7],catalyzed the oxidation
CCN1C(=O)C=CC1=O [N-ethylmalemide],% inhibition of SADH activity,[2],6%
same,% inhibition of SADH activity,[2]; listed as N-ethylmaleimide,not inhibited
"O=C(O)c1cc(SSc2ccc([N+](=O)[O-])c(C(=O)O)c2)ccc1[N+](=O)[O-] [5,5'-dithiobis(2-nitrobenzoic acid)]",% inhibition of SADH activity,[2],100%
same,% inhibition of SADH activity,"[2]; listed as 5,5'-dithiobis (2-nitrobenzoic acid)",inhibited
NC(=O)C1=CN([C@@H]2O[C@H](COP(=O)(O)OP(=O)(O)OC[C@H]3O[C@@H](n4cnc5c(N)ncnc54)[C@H](OP(=O)(O)O)[C@@H]3O)[C@@H](O)[C@H]2O)C=CC1 [NAD(P)H],effectiveness as cofactor in place of NAD,[6],not effective
[Cu+2] [cupric],% inhibition of SADH activity,[2],25%
"CC(O)CO (stereo not drawn) [1,2-propandiol]",oxidation by the purified enzyme (substrate specificity),[1]; [7],not oxidized
